In brackets after ≈: the same amount, converted by molar mass.
Tests used:
HIV = assay: Antiviral assay: inhibition of the killing of HIV-infected T4 lymphocytes (CEM cell line), XTT formazan readout; assay type: cell-based; conditions: for therapeutic index (IC50 divided by EC50): in cell culture; for EC50: Human immunodeficiency virus 1, CCRF-CEM, read-out: EC50, Inhibition of the killing of HIV-infected T4-lymphocytes
Method: The procedure used in the test for agents active against (HIV) is designed to detect agents acting at any stage of the virus reproductive cycle. The assay basically involves the killing of T4 lymphocytes by HIV. Small amounts of HIV are added to cells, and at least two complete cycles of virus reproduction are necessary to obtain the required cell killing. Agents which interact with virions, cells, or virus gene-products to interfere with viral activities will protect cells from cytolysis. The system is automated in several features to accommodate large numbers of candidate agents, and is generally designed to detect anti-HIV activity. However, compounds which degenerate or are rapidly metabolized in the culture conditions may not show activity in this screen. Also, while every attempt has been made to reduce variability, precise values for EC₅₀, IC₅₀, and Therapeautic Index are not possible. All tests are compared with a positive (AZT-treated) control done at the same time under identical conditions.
• 1. T4 lymphocytes (CEM cell line) are exposed to HIV at a virus to cell ratio approximately 0.05, and plated along with noninfected control cells in 96-well microtiter plates. • 2. The candidate agent is dissolved in dimethyl sulfoxide (unless otherwise instructed), then diluted 1:200 in cell culture medium. Further dilutions (half-log₁₀) are prepared before adding to an equal volume of medium containing either infected or noninfected cells. • 3. Cultures are incubated at 37 °C in a 5% carbon dioxide atmosphere for 6 or 7 days. • 4. The tetrazolium salt, XTT, is added to all wells, and cultures are incubated to allow formazan color development by viable cells. • 5. Individual wells are analyzed spectrophotometrically to quantitate formazan production, and in addition are viewed microscopically for detection of viable cells and confirmation of protective activity. • 6. Drug-treated virus-infected cells are compared with drug-treated noninfected cells and with other appropriate controls (untreated infected and untreated noninfected cells, drug-containing wells without cells, etc.) on the same plate. • 7. Data are reviewed in comparison with other tests done at the same time, and a determination about activity is made.

Vero cells = assay: Effect on the replication of Vero cells; assay type: cell-based; conditions: for inhibition at 100 µg/mL: Conc. 100 ug/ml
Method: A second experiment shown in Table II herebelow was conducted to show the effects of various compounds on replication of Vero cells. […] This is indicative of much lower toxicity than AZT, (Compound No. 1) which inhibit a much higher percentage of these cells at a given concentration. TABLE II [table]

Structure (SMILES) | therapeutic index (IC50 divided by EC50) (HIV) | inhibition at 100 µg/mL (Vero cells; Chlorocebus sabaeus, Vero) | EC50 (HIV) | further results
Cc1cn([C@H]2C[C@H](N=[N+]=[N-])[C@@H](CO)O2)c(=O)[nH]c1=O [AZT, 3′-azido-3′-deoxythymidine, reference compound] | about 100 | 86% |  | inhibition at 10 µg/mL (Vero cells; Chlorocebus sabaeus, Vero, Conc. 10 ug/ml): 21%
Cc1cn([C@H]2C=C(n3ccnn3)[C@@H](CO)O2)c(=O)[nH]c1=O [Compound 2, 1-[2′,3′-Didehydro-2′,3′-dideoxy-3′-(1˝-1˝,2˝,3˝-triazolo)ribofuranosyl]thymine] |  |  | > 100 µg/mL | 
C#CC1=C[C@H](n2cc(C)c(=O)[nH]c2=O)O[C@@H]1CO [Compound 3, 1-(2′,3′-Didehydro-2′,3′-dideoxy-3′-ethynylribofuranosyl)thymine] |  |  | > 100 µg/mL | 
Cc1cn([C@H]2C=C(C#N)[C@@H](CO)O2)c(=O)[nH]c1=O [Compound 4, 1-(3′-Cyano-2˝,3˝-didehydro-2′,3′-dideoxyribofuranosyl)thymine] |  |  | > 100 µg/mL | 
Cc1nnc(S(=O)(=O)C2=C[C@H](n3cc(C)c(=O)[nH]c3=O)O[C@@H]2CO)s1 [Compound 5, 1-[2′,3′-Didehydro-2′,3′-dideoxy-3′-(2˝-sulfono-5˝-methyl-1˝,3˝,4˝-thiadiazolo)ribofuranosyl]thymine] | ~170 | 20% | 4.9 µg/mL (≈ 12.7 µM) | inhibition at 50 µg/mL (Vero cells; Chlorocebus sabaeus, Vero, Conc. 50 ug/ml): 0%; inhibition at 75 µg/mL (Vero cells; Chlorocebus sabaeus, Vero, Conc. 75 ug/ml): 10%; inhibition of Vero cells, in words (Vero cells; fast growing Vero cells): little inhibition

From EP0348170A2, “Antiviral pyrimidine derivatives” (Lee, Moses Nam Fong, priority 1988, dated 1989)
